Data as given in patent US11766470B2, “Manufacture, formulation and dosing of apraglutide” (VectivBio AG, priority 2020, dated 2023).
Square brackets hold non-standard residues; d marks the D form. Peptide text beside a SMILES is read from it. ξ: configuration not given here. Ile(3ξ) = CCC(C)[C@H](N)C(=O)O; Thr(3ξ) = CC(O)[C@H](N)C(=O)O; Nle = CCCC[C@H](N)C(=O)O

Test system: patients with SBS-IF
Test: Phase 2 placebo-controlled crossover trial in SBS-IF patients (Example 5): urine output, urine sodium, PS volume, oral fluid intake, hydration parameters, plasma L-citrulline, body composition
Assay type: in vivo, human
Method: The following non-limiting example describes results from a Phase 2 clinical trial in which subjects with SBS-IF were treated with the apraglutide formulations of the present disclosure. This Phase 2 trial investigated the safety and efficacy of 5 and 10 mg apraglutide in patients with SBS-IF.
Eight adult patients with SBS-IF were treated with apraglutide compositions of the present disclosure according to Table 6. Briefly, patients with SBS-IF were administered 5 mg apraglutide of the present disclosure or placebo once a week for four weeks. The patients were then administered 10 mg apraglutide of the present disclosure once a week for four weeks. Additionally, there was a washout period of 6-10 weeks between treatments.
The trial described in Example 5 was a double-blind, crossover, randomized, placebo-controlled, phase 2 trial followed by an additional treatment period in an open-label regimen. Eight adult patients (aged ≥18 to ≤80 years) with SBS-IF were enrolled in the trial. Patient eligibility was assessed during a screening visit. The main inclusion criteria were: Patients with SBS secondary to surgical resection of the small bowel with a jejuno- or ileostomy, at least 6 months since last bowel resection, a fecal output of at least 1500 g/day as recorded within the last 18 months, and PS-infusions≥3 times per week for ≥12 months according to the patient's medical record. Patients were excluded, if they had clinical signs of activity in inflammatory bowel disease, a history of cancer within ≤5 years or an inadequate hepatic, kidney, or heart function. Patients were also excluded, if they had received native GLP-2 or a GLP-2 analogue within the last 3 months.
The procedures during each treatment period were consistent.
Efficacy assessments were performed for each treatment period of 29 days. Patients received a paper diary for recording PS volume administration, urine collections and oral fluid intakes at specific time points. Patients performed home 48-hour urine collections at baseline (day −2 to 1), immediately after first treatment injection (day 1 to 3), and at the end of the treatment period (day 27-29, […] after the fourth administration of the trial drug). Urine was collected by the patient in a urine container with volume markings and 48-hour urine volumes were reported in the diary. After completing the 48-hour collection, patients transferred approximately 100 mL of urine from the container to a sample which was delivered at the next patient visit. The amount of sodium excreted per 48 hours was then calculated as the concentration of sodium in the sample multiplied by the total volume of urine collected. During each urine collection, weekly PS volume and content and daily oral fluid intake were kept constant. Since they were kept constant, increases in urine volume were a sign of increased fluid absorption. […] Patients were to adhere to their drinking menu during each urine collection and the concomitant 48-hour oral fluid intake was reported in the diary during each urine collection.
On day 20-22, patients were informed to record their spontaneous oral fluid intake during 48 hours. This measurement was included to investigate whether increased intestinal absorption was associated with a decrease in their spontaneous oral fluid intake.
Between day 4 and 24, PS volume reductions were allowed if deemed clinically necessary by the investigator. […] PS volume reductions were assessed during day 20-22. Patients returned to their baseline PS volume and content during the end of the treatment urine collection (day 27-29). Concomitant medications including proton-pump inhibitors, loperamide, and opiates were kept unchanged and stable throughout the trial. If necessary, adjustments could be made in the drinking menu and prescribed PS volume and content between treatment periods based on discussions between the patient and the investigator.
Body weight was measured using a levelled platform scale. […]

[1] = 5 mg vs 10 mg, Part A+B, day 1-3 after first injection
[2] = 5 mg vs 10 mg, Part A+B, day 20-22
[3] = 5 mg vs 10 mg, Part A+B, day 27-29
[4] = 5 mg vs 10 mg, Part A+B, end of treatment
[5] = 5 mg vs placebo, Part A+B, day 1-3 after first injection
[6] = 5 mg vs placebo, Part A+B, day 20-22
[7] = 5 mg vs placebo, Part A+B, day 27-29
[8] = 5 mg vs placebo, Part A+B, day 27-29, listed as Apraglutide
[9] = 5 mg vs placebo, Part A+B, end of treatment

CCCC[C@H](NC(=O)[C@H](CCC(=O)O)NC(=O)[C@H](CC(=O)O)NC(=O)[C@H](CO)NC(=O)[C@H](Cc1ccccc1)NC(=O)[C@H](CO)NC(=O)CNC(=O)[C@H](CC(=O)O)NC(=O)CNC(=O)[C@@H](N)Cc1c[nH]cn1)C(=O)N[C@H](Cc1ccccc1)C(=O)N[C@H](C(=O)N[C@H](C(=O)N[C@@H](CC(C)C)C(=O)N[C@@H](CC(=O)O)C(=O)N[C@@H](CC(C)C)C(=O)N[C@@H](CC(C)C)C(=O)N[C@@H](C)C(=O)N[C@@H](C)C(=O)N[C@@H](CCCNC(=N)N)C(=O)N[C@@H](CC(=O)O)C(=O)N[C@@H](Cc1ccccc1)C(=O)N[C@H](C(=O)N[C@@H](CC(N)=O)C(=O)N[C@@H](Cc1c[nH]c2ccccc12)C(=O)N[C@@H](CC(C)C)C(=O)N[C@H](C(=O)N[C@@H](CCC(N)=O)C(=O)N[C@H](C(=O)N[C@@H](CCCCN)C(=O)N[C@H](C(=O)N[C@H](C(=O)N[C@@H](CC(=O)O)C(N)=O)C(C)O)C(C)CC)C(C)O)C(C)CC)C(C)CC)C(C)CC)C(C)O (stereo partly drawn) [apraglutide, L-histidyl-glycyl-L-aspartyl-glycyl-L-seryl-L-phenylalanyl-L-seryl-L-aspartyl-L-glutamyl-L-norleucyl-D-phenylalanyl-L-threonyl-Lisoleucyl-L-leucyl-L-aspartyl-L-leucyl-L-leucyl-L-alanyl-L-alanyl-L-arginyl-L-aspartyl-L-phenylalanyl-L-isoleucyl-L-asparaginyl-Ltryptophanyl-L-leucyl-L-isoleucyl-L-glutaminyl-L-threonyl-L-lysyl-L-isoleucyl-L-threonyl-Laspartic acid amide] (H-HGDGSFSDE[Nle][dF][Thr(3ξ)][Ile(3ξ)]LDLLAARDF[Ile(3ξ)]NWL[Ile(3ξ)]Q[Thr(3ξ)]K[Ile(3ξ)][Thr(3ξ)]D-NH2)
Patients with increased relative urine volume output compared to placebo (exceeding 10%) (5 mg): 6 out of 8
Absolute urine output, adjusted mean change from baseline [1]: −26 (−462 to 409); mL/day
Relative urine output, adjusted mean change from baseline [1]: −12 (−43 to 19); %
Urine sodium excretion (%), adjusted mean change from baseline [1]: −43(−149 to 63); %
Urine sodium excretion, adjusted mean change from baseline [1]: −1 (−22 to 20); mmol/day
Oral fluid intake, adjusted mean change from baseline [2]: −119 (−396 to 157); mL/day
PS volume, adjusted mean change from baseline [2]: −380 (−851 to 91); mL/day
Relative PS volume, adjusted mean change from baseline [2]: −15 (−38 to 9); %
Relative oral fluid intake, adjusted mean change from baseline [2]: −7 (−17 to 3); %
Absolute urine output, adjusted mean change from baseline [3]: 84 (−514 to 682); mL/day
Relative urine output, adjusted mean change from baseline [3]: −14 (−51 to 23); %
Urine sodium excretion (%), adjusted mean change from baseline [3]: 266 (−266 to 798); %
Urine sodium excretion, adjusted mean change from baseline [3]: 32 (−37 to 101); mmol/day
Albumin, adjusted mean change from baseline [4]: 1.0 (−0.8 to 2.9); g/L
Aldosterone, adjusted mean change from baseline [4]: −151 (−3,570 to 3,268); pmol/L
Body weight, adjusted mean change from baseline [4]: −0.6 (−2.4 to 1.3); kg
Bone mineral content, adjusted mean change from baseline [4]: 12 (−57 to 82); g
CO2 total, adjusted mean change from baseline [4]: 1.0 (−1.4 to 3.4); mmol/L
Creatinine, adjusted mean change from baseline [4]: 4.6 (−12.3 to 21.5); umol/L
Fat body mass, adjusted mean change from baseline [4]: −1.44 (−2.92 to 0.04); kg
Hematocrit, adjusted mean change from baseline [4]: −0.4 (−1.2 to 0.4); vol/fr
Lean body mass, adjusted mean change from baseline [4]: 0.12 (−3.00 to 3.24); kg
Plasma L-citrulline, adjusted mean change from baseline [4]: −3.6 (−19.8 to 12.6); μmol/L
Protein, adjusted mean change from baseline [4]: −0.3 (−4.5 to 3.9); g/L
Relative body weight, adjusted mean change from baseline [4]: −1 (−4 to 2); %
Relative bone mineral content, adjusted mean change from baseline [4]: 0 (−3 to 3); %
Relative fat body mass, adjusted mean change from baseline [4]: −7 (−16 to 1); %
Relative lean body mass, adjusted mean change from baseline [4]: −0 (−8 to 7); %
Relative plasma L-citrulline, adjusted mean change from baseline [4]: −23 (−74 to 29); %
Urea, adjusted mean change from baseline [4]: 0.3 (−1.3 to 1.9); mmol/L
Fluid composite effect, estimated difference between the two doses (5 mg vs 10 mg, post-hoc, Part A+B): 594
Absolute urine output, adjusted mean change from baseline [5]: −38 (−456 to 381); mL/day
Relative urine output, adjusted mean change from baseline [5]: 6 (−24 to 35); %
Urine sodium excretion (%), adjusted mean change from baseline [5]: 65 ( −36 to 166); %
Urine sodium excretion, adjusted mean change from baseline [5]: 3 (−17 to 23); mmol/day
PS volume, adjusted mean change from baseline [6]: −89 (−543 to 366); mL/day
Relative PS volume, adjusted mean change from baseline [6]: −13 (−36 to 9); %
Relative oral fluid intake, adjusted mean change from baseline [6]: −9 (−18 to 1); %
Absolute urine output, adjusted mean change from baseline [7]: 711 (132 to 1,289); mL/day
Relative urine output, adjusted mean change from baseline [7]: 48 (12 to 84); %
Urine sodium excretion (%), adjusted mean change from baseline [7]: 166 (−342 to 675); %
Urine sodium excretion, adjusted mean change from baseline [7]: 56 (−10 to 123); mmol/day
Absolute urine output, adjusted mean change from baseline [8]: 711 mL/day
Relative urine output, adjusted mean change from baseline [8]: 48%
Urine sodium excretion, adjusted mean change from baseline [8]: 56 mmol/day
Albumin, adjusted mean change from baseline [9]: −0.0 (−1.8 to 1.8); g/L
Body weight, adjusted mean change from baseline [9]: 1.9 (0.1 to 3.7); kg
Bone mineral content, adjusted mean change from baseline [9]: −4 (−73 to 66); g
CO2 total, adjusted mean change from baseline [9]: 0.3 (−2.0 to 2.6); mmol/L
Creatinine, adjusted mean change from baseline [9]: −9.7(−25.8 to 6.4); umol/L
Fat body mass, adjusted mean change from baseline [9]: 1.77 (0.29 to 3.24); kg
Hematocrit, adjusted mean change from baseline [9]: 0.6 (−0.2 to1.4); vol/fr
Lean body mass, adjusted mean change from baseline [9]: 0.64 (−2.49 to 3.77); kg
Plasma L-citrulline, adjusted mean change from baseline [9]: 17.6 (2.0 to 33.2); μmol/L
Protein, adjusted mean change from baseline [9]: −0.4 (−4.2 to 3.4); g/L
